Patent publication US12378224B2 (Dong-A Socio Holdings Co., Ltd., priority 2016, dated 2025)

biological target: human MER (528-end) (Homo sapiens (Human), UniProt Q12866); test: HTRF Kinase Activity Biochemical Assay (KinEASE-TK); details: 10 uM ATP
Outline: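 Activity read-out is the HTRF ratio (665 nm over 620 nm emission, ×10,000; excitation 340 nm) after 1 h detection with 0.375 nM Eu3+-cryptate anti-TK antibody plus 0.062 uM SA-XL665. Preceding kinase step: human MER (528-end), biotinylated TK substrate, 1 h, room temperature.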

Sequence of human MER (528-end) (Q12866 528-999 limits assumed): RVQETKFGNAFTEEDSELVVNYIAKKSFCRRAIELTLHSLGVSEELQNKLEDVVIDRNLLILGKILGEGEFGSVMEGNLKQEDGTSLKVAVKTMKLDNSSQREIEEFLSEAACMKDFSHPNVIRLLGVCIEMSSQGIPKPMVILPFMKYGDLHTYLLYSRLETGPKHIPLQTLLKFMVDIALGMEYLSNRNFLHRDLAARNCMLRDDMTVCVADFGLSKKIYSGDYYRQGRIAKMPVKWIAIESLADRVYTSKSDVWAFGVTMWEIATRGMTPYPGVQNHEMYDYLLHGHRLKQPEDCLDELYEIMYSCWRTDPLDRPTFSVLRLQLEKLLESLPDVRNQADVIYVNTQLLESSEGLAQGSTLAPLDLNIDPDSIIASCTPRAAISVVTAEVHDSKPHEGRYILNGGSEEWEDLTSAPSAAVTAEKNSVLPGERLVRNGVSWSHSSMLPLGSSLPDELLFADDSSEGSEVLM

Structure (SMILES)	IC50
Nc1ncc(-c2cnn(C3CCNCC3)c2)cc1C(=O)N[C@@H]1CCN(Cc2c(Cl)cccc2Cl)C1 [Example 159, (R)-2-amino-N-(1-(2,6-dichlorobenzyl)pyrrolidin-3-yl)-5-(1-(piperidin-4-yl)-1H-pyrazol-4-yl)nicotinamide]	> 1000 nM
Nc1ncc(-c2cnn(C3CCNCC3)c2)cc1C(=O)N[C@@H]1CCN(Cc2ccc(F)c(F)c2)C1 [Example 160, (R)-2-amino-N-(1-(3,4-difluorobenzyl)pyrrolidin-3-yl)-5-(1-(piperidin-4-yl)-1H-pyrazol-4-yl)nicotinamide]	> 1000 nM
Nc1ncc(-c2cnn(C3CCNCC3)c2)cc1C(=O)N[C@@H]1CCN(Cc2c(F)ccc(F)c2F)C1 [Example 162, (R)-2-amino-5-(1-(piperidin-4-yl)-1H-pyrazol-4-yl)-N-(1-(2,3,6-trifluorobenzyl)pyrrolidin-3-yl)nicotinamide]	> 1000 nM
Cc1nc(C)c(CN2CC[C@@H](NC(=O)c3cc(-c4cnn(C5CCNCC5)c4)cnc3N)C2)s1 [Example 163, (R)-2-amino-N-(1-((2,4-dimethylthiazol-5-yl)methyl)pyrrolidin-3-yl)-5-(1-(piperidin-4-yl)-1H-pyrazol-4-yl)nicotinamide]	> 1000 nM
Cc1ccc(C)c(CN2CC[C@@H](NC(=O)c3cc(-c4cnn(C5CCNCC5)c4)cnc3N)C2)c1 [Example 166, (R)-2-amino-N-(1-(2,5-dimethylbenzyl)pyrrolidin-3-yl)-5-(1-(piperidin-4-yl)-1H-pyrazol-4-yl)nicotinamide]	> 1000 nM
Nc1ncc(-c2cnn(C3CCNCC3)c2)cc1C(=O)N[C@@H]1CCN(Cc2ccccc2C(F)(F)F)C1 [Example 168, (R)-2-amino-5-(1-(piperidin-4-yl)-1H-pyrazol-4-yl)-N-(1-(2-(trifluoromethyl)benzyl)pyrrolidin-3-yl)nicotinamide]	> 1000 nM
Nc1ncc(-c2cnn(C3CCNCC3)c2)cc1C(=O)N[C@@H]1CCN(CC2CC=CCC2)C1 (stereo partly drawn) [Example 169, 2-amino-N-((3R)-1-(cyclohex-3-en-1-ylmethyl)pyrrolidin-3-yl)-5-(1-(piperidin-4-yl)-1H-pyrazol-4-yl)nicotinamide]	> 1000 nM
CC1(C)[C@H]2CC=C(CN3CC[C@@H](NC(=O)c4cc(-c5cnn(C6CCNCC6)c5)cnc4N)C3)[C@@H]1C2 [Example 170, 2-amino-N—((R)-1-(((1R,5S)-6,6-dimethylbicyclo[3.1.1]hept-2-en-2-yl)methyl)pyrrolidin-3-yl)-5-(1-(piperidin-4-yl)-1H-pyrazol-4-yl)nicotinamide]	> 1000 nM
Cn1cc(-c2cnc(N)c(C(=O)N[C@@H]3CCN(Cc4ccccc4)C3)c2)cn1 [Example 205, (R)-2-amino-N-(1-benzylpyrrolidin-3-yl)-5-(1-methyl-1H-pyrazol-4-yl)nicotinamide]	> 1000 nM
Cn1cc(-c2cnc(N)c(C(=O)N[C@H]3CCN(Cc4ccccc4)C3)c2)cn1 [Example 207, (S)-2-amino-N-(1-benzylpyrrolidin-3-yl)-5-(1-methyl-1H-pyrazol-4-yl)nicotinamide]	> 1000 nM
Cn1cc(-c2cnc(N)c(C(=O)N[C@@H]3CCN(Cc4ccccc4Cl)C3)c2)cn1 [Example 208, (R)-2-amino-N-(1-(2-chlorobenzyl)pyrrolidin-3-yl)-5-(1-methyl-1H-pyrazol-4-yl)nicotinamide]	100 to 1000 nM
COc1cccc(CN2CC[C@@H](NC(=O)c3cc(-c4cnn(C)c4)cnc3N)C2)c1 [Example 209, (R)-2-amino-N-(1-(3-methoxybenzyl)pyrrolidin-3-yl)-5-(1-methyl-1H-pyrazol-4-yl)nicotinamide]	> 1000 nM
Cn1cc(-c2cnc(N)c(C(=O)N[C@@H]3CCN(Cc4ccc(Cl)cc4)C3)c2)cn1 [Example 210, (R)-2-amino-N-(1-(4-chlorobenzyl)pyrrolidin-3-yl)-5-(1-methyl-1H-pyrazol-4-yl)nicotinamide]	100 to 1000 nM
CCc1ccc(CN2CC[C@@H](NC(=O)c3cc(-c4cnn(C)c4)cnc3N)C2)cc1 [Example 211, (R)-2-amino-N-(1-(4-ethylbenzyl)pyrrolidin-3-yl)-5-(1-methyl-1H-pyrazol-4-yl)nicotinamide]	> 1000 nM
CC(C)c1ccc(CN2CC[C@@H](NC(=O)c3cc(-c4cnn(C)c4)cnc3N)C2)cc1 [Example 212, (R)-2-amino-N-(1-(4-isopropylbenzyl)pyrrolidin-3-yl)-5-(1-methyl-1H-pyrazol-4-yl)nicotinamide]	> 1000 nM
Cn1cc(-c2cnc(N)c(C(=O)N[C@@H]3CCN(Cc4ccc(Cl)c(Cl)c4)C3)c2)cn1 [Example 213, (R)-2-amino-N-(1-(3,4-dichlorobenzyl)pyrrolidin-3-yl)-5-(1-methyl-1H-pyrazol-4-yl)nicotinamide]	> 1000 nM
Cc1ccc(CN2CC[C@@H](NC(=O)c3cc(-c4cnn(C)c4)cnc3N)C2)cc1C [Example 214, (R)-2-amino-N-(1-(3,4-dimethylbenzyl)pyrrolidin-3-yl)-5-(1-methyl-1H-pyrazol-4-yl)nicotinamide]	> 1000 nM

Structure (SMILES)	IC50
COc1cc(CN2CC[C@@H](NC(=O)c3cc(-c4cnn(C)c4)cnc3N)C2)cc(OC)c1 [Example 216, (R)-2-amino-N-(1-(3,5-dimethoxybenzyl)pyrrolidin-3-yl)-5-(1-methyl-1H-pyrazol-4-yl)nicotinamide]	> 1000 nM
COc1ccc(OC)c(CN2CC[C@@H](NC(=O)c3cc(-c4cnn(C)c4)cnc3N)C2)c1 [Example 218, (R)-2-amino-N-(1-(2,5-dimethoxybenzyl)pyrrolidin-3-yl)-5-(1-methyl-1H-pyrazol-4-yl)nicotinamide]	> 1000 nM
COc1ccc(O)c(CN2CC[C@@H](NC(=O)c3cc(-c4cnn(C)c4)cnc3N)C2)c1 [Example 219, (R)-2-amino-N-(1-(2-hydroxy-5-methoxybenzyl)pyrrolidin-3-yl)-5-(1-methyl-1H-pyrazol-4-yl)nicotinamide]	> 1000 nM
COc1ccc(CN2CC[C@@H](NC(=O)c3cc(-c4cnn(C)c4)cnc3N)C2)c(OC)c1 [Example 220, (R)-2-amino-N-(1-(2,4-dimethoxybenzyl)pyrrolidin-3-yl)-5-(1-methyl-1H-pyrazol-4-yl)nicotinamide]	> 1000 nM
Cn1cc(-c2cnc(N)c(C(=O)N[C@@H]3CCN(Cc4cc(Cl)cc(Cl)c4)C3)c2)cn1 [Example 224, (R)-2-amino-N-(1-(3,5-dichlorobenzyl)pyrrolidin-3-yl)-5-(1-methyl-1H-pyrazol-4-yl)nicotinamide]	> 1000 nM
Cn1cc(-c2cnc(N)c(C(=O)N[C@@H]3CCN(Cc4ccccc4-c4ccccc4)C3)c2)cn1 [Example 225, (R)—N-(1-([1,1′-biphenyl]-2-ylmethyl)pyrrolidin-3-yl)-2-amino-5-(1-methyl-1H-pyrazol-4-yl)nicotinamide]	100 to 1000 nM
Cn1cc(-c2cnc(N)c(C(=O)N[C@@H]3CCN(Cc4ccc(-c5ccccc5)cc4)C3)c2)cn1 [Example 226, (R)—N-(1-([1,1′-biphenyl]-4-ylmethyl)pyrrolidin-3-yl)-2-amino-5-(1-methyl-1H-pyrazol-4-yl)nicotinamide]	> 1000 nM
Cn1cc(-c2cnc(N)c(C(=O)N[C@@H]3CCN(CCCc4ccccc4)C3)c2)cn1 [Example 227, (R)-2-amino-5-(1-methyl-1H-pyrazol-4-yl)-N-(1-(3-phenylpropyl)pyrrolidin-3-yl)nicotinamide]	> 1000 nM
Cn1cc(-c2cnc(N)c(C(=O)N[C@@H]3CCN(CC=Cc4ccccc4)C3)c2)cn1 [Example 228, (R)-2-amino-N-(1-cinnamylpyrrolidin-3-yl)-5-(1-methyl-1H-pyrazol-4-yl)nicotinamide]	100 to 1000 nM
Cn1cc(-c2cnc(N)c(C(=O)N[C@@H]3CCN(CCOCc4ccccc4)C3)c2)cn1 [Example 229, (R)-2-amino-N-(1-(2-(benzyloxy)ethyl)pyrrolidin-3-yl)-5-(1-methyl-1H-pyrazol-4-yl)nicotinamide]	> 1000 nM
Cn1cc(-c2cnc(N)c(C(=O)N[C@@H]3CCN(CCc4ccccc4)C3)c2)cn1 [Example 230, (R)-2-amino-5-(1-methyl-1H-pyrazol-4-yl)-N-(1-phenethylpyrrolidin-3-yl)nicotinamide]	> 1000 nM
Cn1cc(-c2cnc(N)c(C(=O)N[C@@H]3CCN(Cc4cccc(Br)c4)C3)c2)cn1 [Example 231, (R)-2-amino-N-(1-(3-bromobenzyl)pyrrolidin-3-yl)-5-(1-methyl-1H-pyrazol-4-yl)nicotinamide]	> 1000 nM
Cn1cc(-c2cnc(N)c(C(=O)N[C@@H]3CCN(Cc4ccccc4Br)C3)c2)cn1 [Example 232, (R)-2-amino-N-(1-(2-bromobenzyl)pyrrolidin-3-yl)-5-(1-methyl-1H-pyrazol-4-yl)nicotinamide]	100 to 1000 nM
Cn1cc(-c2cnc(N)c(C(=O)N[C@@H]3CCN(Cc4ccc(F)c(Br)c4)C3)c2)cn1 [Example 233, (R)-2-amino-N-(1-(3-bromo-4-fluorobenzyl)pyrrolidin-3-yl)-5-(1-methyl-1H-pyrazol-4-yl)nicotinamide]	> 1000 nM
Nc1ncc(-c2ccc(CO)cc2)cc1C(=O)N[C@@H]1CCN(Cc2ccc(Cl)cc2)C1 [Example 237, (R)-2-amino-N-(1-(4-chlorobenzyl)pyrrolidin-3-yl)-5-(4-(hydroxymethyl)phenyl)nicotinamide]	100 to 1000 nM
Cn1cc(-c2cnc(N)c(C(=O)N[C@@H]3CCN(Cc4cccc(-c5cccc(CO)c5)c4)C3)c2)cn1 [Example 243, (R)-2-amino-N-(1-((3′-(hydroxymethyl)-[1,1′-biphenyl]-3-yl)methyl)pyrrolidin-3-yl)-5-(1-methyl-1H-pyrazol-4-yl)nicotinamide]	100 to 1000 nM
Cn1cc(-c2cnc(N)c(C(=O)N[C@@H]3CCN(Cc4cccc(-c5ccc(CO)cc5)c4)C3)c2)cn1 [Example 244, (R)-2-amino-N-(1-((4′-(hydroxymethyl)-[1,1′-biphenyl]-3-yl)methyl)pyrrolidin-3-yl)-5-(1-methyl-1H-pyrazol-4-yl)nicotinamide]	100 to 1000 nM
